The text below walks through data of ChEMBL document CHEMBL4715727, “Design, synthesis, and biological evaluation of a novel series of peripheral-selective noradrenaline reuptake inhibitors-Part 2” (Bioorg Med Chem, 2016).

Each structure is given as a SMILES string.

Series [1] addresses Sodium-dependent dopamine transporter (Homo sapiens, UniProt Q01959). Description: Inhibition of human DAT expressed in CHO-K1 cells assessed as inhibition of [3H]-dopamine reuptake measured after 60 mins by Microscintillation counting analysis. Type of series: cell-based.
A short description of series [2]: Permeability coefficient of the compound at 10 uM at pH 7.4 measured after 3 hrs by PAMPA based LC/MS/MS analysis. Further details: unit not given here. The format is ADME. The settings on record: pH 7.4, 3 h. For orientation: In PAMPA a lipid-coated filter parts donor from acceptor wells.
Series [3] has as its target Sodium-dependent serotonin transporter (Homo sapiens, UniProt P31645). The series can be described thus: Inhibition of human SERT expressed in CHO-K1 cells assessed as inhibition of [3H]-5-hydroxytryptamine reuptake measured after 20 mins by Microscintillation counting analysis. Type of series: cell-based.
The target of series [4] is Sodium-dependent noradrenaline transporter (Homo sapiens, UniProt P23975). The series can be described thus: Inhibition of human NET expressed in CHO-K1 cells assessed as inhibition of [3H]-norepinephrine reuptake measured after 45 mins by Microscintillation counting analysis. Type of series: cell-based.
The next series addresses MDR1 (ABCB1, P-gp) (Homo sapiens, UniProt P08183). The series can be described thus: Substrate activity at human MDR1 expressed in LLC-PK1 cells assessed as efflux ratio of permeability from basolateral to apical side over apical to basolateral side at 10 uM measured after 2 hrs by LC/MS/MS analysis. Type of series: ADME, cell-based.
The target in another series is CYP2D6 (Homo sapiens, UniProt P10635). The series can be described thus: Inhibition of CYP2D6 (unknown origin) expressed in insect cells assessed as reduction in 1'-hydroxybufuralol formation using bufuralol as substrate at 10 uM incubated for 60 mins by LC/MS/MS analysis. The settings on record: recombinant CYP2D6 expressed in insect cells, probe bufuralol. The format is ADME.

Another series addresses Cytochrome P450 3A4 (Homo sapiens, UniProt P08684). The series can be described thus: Drug metabolism assessed as CYP3A4 (unknown origin) expressed in microsomes-mediated metabolism by measuring metabolic rate at 1 uM incubated for 10 mins by UPLC analysis. Type of series: ADME, Microsome.
The next series deals with hERG (KCNH2) (Homo sapiens, UniProt Q12809). Description: Inhibition of human ERG at 10 uM.
Series [5] has as its target T1, Cytochrome P450 2D6 (Homo sapiens, UniProt P10635). Description: Drug metabolism in human hepatocytes assessed as CYP2D6-mediated N-(((6S,7R)-7-(4-chloro-3-fluorophenyl)-1,4-oxazepan-6-yl)methyl)-2-hydroxyacetamide formation at 10 uM incubated for 6 hrs by LC/MS/MS anlaysis. Type of series: ADME, cell-based, Hepatocyte.
Series [6] is described as follows: Drug metabolism assessed as CYP2B6/CYP2C9/CYP2E1/CYP2C8/CYP1A2 (unknown origin) expressed in microsomes-mediated metabolism by measuring metabolic rate at 1 uM incubated for 10 mins by UPLC analysis. The format is ADME, Microsome. The settings on record: human.
Series [7] deals with T1, Cytochrome P450 2D6. Description: Drug metabolism assessed as CYP2D6 (unknown origin) expressed in microsomes-mediated metabolism by measuring metabolic rate at 1 uM incubated for 10 mins by UPLC analysis. The format is ADME, Microsome.
Series [8] can be described thus: Oral bioavailability in Crl:CD(SD)(IGS) rat at 1 mg/kg measured after 8 hrs by LC/MS/MS analysis. Type of series: ADME, organism-based. The settings on record: in vivo.
Another series addresses Cytochrome P450 2C19 (Homo sapiens, UniProt P33261). The series can be described thus: Drug metabolism assessed as CYP2C19 (unknown origin) expressed in microsomes-mediated metabolism by measuring metabolic rate at 1 uM incubated for 10 mins by UPLC analysis. The format is ADME, Microsome.
The nature of series [9]: Ex vivo receptor occupancy at NET in Sprague-Dawley rat left brain cortex assessed as [3H]nisoxetine labelling at 3 mg/kg, iv measured after 20 mins by scintillation counting analysis. Type of series: functional.
Series [10] has as its target T1, Cytochrome P450 2D6. Description: Drug metabolism assessed as CYP2D6 (unknown origin)-expressed in microsomes mediated N-(((6S,7R)-7-(4-chloro-3-fluorophenyl)-1,4-oxazepan-6-yl)methyl)-2-hydroxyacetamide formation at 1 uM incubated for 10 mins by UPLC anlaysis. Type of series: ADME, Microsome.
The test system of the next series is Rattus norvegicus. Description: Anti-SUI activity in po dosed rat assessed as induction of urethral resistance by measuring increase in leak point pressure measured after 15 to 240 mins. The settings on record: dose 1-10 mg/kg, time 15-240 min, tested as the 2H-labelled form. The format is functional, organism-based.

Sequence of Sodium-dependent serotonin transporter (P31645 whole entry): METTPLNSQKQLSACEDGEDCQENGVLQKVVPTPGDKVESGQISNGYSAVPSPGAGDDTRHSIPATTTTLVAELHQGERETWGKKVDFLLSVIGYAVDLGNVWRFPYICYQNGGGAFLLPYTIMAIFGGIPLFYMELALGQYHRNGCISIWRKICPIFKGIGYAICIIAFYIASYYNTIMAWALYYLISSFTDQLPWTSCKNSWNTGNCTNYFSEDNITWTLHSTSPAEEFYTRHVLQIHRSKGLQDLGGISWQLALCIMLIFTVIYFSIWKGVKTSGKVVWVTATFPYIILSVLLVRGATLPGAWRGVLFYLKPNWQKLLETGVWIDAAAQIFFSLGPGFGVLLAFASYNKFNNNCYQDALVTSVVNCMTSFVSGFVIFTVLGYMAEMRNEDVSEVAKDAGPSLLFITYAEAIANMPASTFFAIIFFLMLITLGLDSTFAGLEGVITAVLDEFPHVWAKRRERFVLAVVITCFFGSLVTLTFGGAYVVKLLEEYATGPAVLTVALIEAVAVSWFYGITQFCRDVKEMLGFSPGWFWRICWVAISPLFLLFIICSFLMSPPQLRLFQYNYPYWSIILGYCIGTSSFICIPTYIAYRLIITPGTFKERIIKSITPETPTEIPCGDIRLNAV
Sequence of Cytochrome P450 2C19 (P33261 whole entry): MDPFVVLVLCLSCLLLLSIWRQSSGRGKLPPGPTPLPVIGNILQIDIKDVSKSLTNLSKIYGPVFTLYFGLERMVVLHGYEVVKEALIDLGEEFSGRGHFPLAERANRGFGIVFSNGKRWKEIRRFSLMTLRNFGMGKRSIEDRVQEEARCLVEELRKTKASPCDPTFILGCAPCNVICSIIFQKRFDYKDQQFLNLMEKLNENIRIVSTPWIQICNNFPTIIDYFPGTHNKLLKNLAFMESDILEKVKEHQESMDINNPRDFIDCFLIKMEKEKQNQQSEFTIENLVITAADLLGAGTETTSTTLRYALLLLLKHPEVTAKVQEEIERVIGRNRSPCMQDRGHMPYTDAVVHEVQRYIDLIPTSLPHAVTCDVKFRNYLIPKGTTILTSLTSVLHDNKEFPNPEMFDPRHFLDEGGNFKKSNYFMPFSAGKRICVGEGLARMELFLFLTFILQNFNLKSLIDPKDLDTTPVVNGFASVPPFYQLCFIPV
Sequence of Sodium-dependent noradrenaline transporter (P23975 whole entry): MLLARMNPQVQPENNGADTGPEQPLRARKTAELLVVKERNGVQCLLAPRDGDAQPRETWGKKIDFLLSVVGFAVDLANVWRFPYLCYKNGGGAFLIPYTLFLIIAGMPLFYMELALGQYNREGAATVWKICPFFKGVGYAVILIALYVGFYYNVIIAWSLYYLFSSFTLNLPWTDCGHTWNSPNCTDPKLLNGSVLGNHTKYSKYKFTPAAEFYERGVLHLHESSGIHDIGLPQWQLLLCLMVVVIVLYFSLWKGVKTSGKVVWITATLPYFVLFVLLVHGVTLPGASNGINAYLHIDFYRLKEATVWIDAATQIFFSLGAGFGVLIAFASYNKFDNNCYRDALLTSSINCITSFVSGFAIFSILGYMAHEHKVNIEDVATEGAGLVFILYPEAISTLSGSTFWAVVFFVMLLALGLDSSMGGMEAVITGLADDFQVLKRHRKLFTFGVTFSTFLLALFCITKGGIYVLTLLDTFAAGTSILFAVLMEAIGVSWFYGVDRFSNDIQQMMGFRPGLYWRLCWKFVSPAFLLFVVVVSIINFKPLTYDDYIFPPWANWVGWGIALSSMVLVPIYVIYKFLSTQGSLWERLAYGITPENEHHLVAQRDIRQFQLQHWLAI
Sequence of Cytochrome P450 3A4 (P08684 whole entry): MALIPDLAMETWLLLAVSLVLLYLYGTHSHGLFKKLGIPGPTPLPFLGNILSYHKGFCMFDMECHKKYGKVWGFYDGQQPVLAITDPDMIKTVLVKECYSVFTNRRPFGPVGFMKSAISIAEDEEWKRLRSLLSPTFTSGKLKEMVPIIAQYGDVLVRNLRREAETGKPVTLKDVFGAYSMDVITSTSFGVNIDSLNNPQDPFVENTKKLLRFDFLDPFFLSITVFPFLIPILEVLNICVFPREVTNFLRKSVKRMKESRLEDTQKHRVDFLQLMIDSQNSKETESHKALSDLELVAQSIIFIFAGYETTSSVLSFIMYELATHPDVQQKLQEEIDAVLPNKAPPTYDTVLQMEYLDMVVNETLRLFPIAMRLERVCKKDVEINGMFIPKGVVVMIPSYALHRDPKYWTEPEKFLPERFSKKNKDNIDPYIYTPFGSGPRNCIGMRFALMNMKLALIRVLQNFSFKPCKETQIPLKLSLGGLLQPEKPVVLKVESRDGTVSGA
Sequence of Sodium-dependent dopamine transporter (Q01959 whole entry): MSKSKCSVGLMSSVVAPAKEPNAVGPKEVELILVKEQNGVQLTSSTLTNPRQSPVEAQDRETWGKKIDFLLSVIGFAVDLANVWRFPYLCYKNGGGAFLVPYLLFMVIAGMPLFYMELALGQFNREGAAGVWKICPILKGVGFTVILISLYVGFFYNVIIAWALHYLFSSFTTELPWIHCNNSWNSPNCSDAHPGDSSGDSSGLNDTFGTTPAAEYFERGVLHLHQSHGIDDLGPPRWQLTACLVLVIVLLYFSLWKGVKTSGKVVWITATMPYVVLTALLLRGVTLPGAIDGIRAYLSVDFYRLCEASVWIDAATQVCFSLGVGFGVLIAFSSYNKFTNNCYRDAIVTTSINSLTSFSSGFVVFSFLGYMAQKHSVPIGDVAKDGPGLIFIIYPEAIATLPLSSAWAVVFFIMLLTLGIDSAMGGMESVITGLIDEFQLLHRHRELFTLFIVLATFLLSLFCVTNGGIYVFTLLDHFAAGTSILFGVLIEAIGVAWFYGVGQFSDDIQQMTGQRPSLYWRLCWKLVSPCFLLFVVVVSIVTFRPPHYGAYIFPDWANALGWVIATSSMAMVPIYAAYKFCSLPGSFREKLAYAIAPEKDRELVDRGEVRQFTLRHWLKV
Sequence of CYP2D6 (P10635 whole entry): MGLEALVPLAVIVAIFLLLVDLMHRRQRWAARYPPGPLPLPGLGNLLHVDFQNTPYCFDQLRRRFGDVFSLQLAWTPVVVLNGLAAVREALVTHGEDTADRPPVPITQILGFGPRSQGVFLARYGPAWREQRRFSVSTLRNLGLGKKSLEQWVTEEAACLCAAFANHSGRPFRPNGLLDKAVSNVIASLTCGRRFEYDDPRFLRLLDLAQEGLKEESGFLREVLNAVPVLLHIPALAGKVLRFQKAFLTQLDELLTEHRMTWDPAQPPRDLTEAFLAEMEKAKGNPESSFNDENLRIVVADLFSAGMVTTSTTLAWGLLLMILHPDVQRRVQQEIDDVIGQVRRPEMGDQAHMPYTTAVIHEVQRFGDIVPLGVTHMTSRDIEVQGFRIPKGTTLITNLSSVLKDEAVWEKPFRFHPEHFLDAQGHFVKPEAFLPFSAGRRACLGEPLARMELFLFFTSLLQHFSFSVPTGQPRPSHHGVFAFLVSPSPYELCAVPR
T1 sequence (P10635 whole entry): as above
Sequence of MDR1 (ABCB1, P-gp) (P08183 whole entry): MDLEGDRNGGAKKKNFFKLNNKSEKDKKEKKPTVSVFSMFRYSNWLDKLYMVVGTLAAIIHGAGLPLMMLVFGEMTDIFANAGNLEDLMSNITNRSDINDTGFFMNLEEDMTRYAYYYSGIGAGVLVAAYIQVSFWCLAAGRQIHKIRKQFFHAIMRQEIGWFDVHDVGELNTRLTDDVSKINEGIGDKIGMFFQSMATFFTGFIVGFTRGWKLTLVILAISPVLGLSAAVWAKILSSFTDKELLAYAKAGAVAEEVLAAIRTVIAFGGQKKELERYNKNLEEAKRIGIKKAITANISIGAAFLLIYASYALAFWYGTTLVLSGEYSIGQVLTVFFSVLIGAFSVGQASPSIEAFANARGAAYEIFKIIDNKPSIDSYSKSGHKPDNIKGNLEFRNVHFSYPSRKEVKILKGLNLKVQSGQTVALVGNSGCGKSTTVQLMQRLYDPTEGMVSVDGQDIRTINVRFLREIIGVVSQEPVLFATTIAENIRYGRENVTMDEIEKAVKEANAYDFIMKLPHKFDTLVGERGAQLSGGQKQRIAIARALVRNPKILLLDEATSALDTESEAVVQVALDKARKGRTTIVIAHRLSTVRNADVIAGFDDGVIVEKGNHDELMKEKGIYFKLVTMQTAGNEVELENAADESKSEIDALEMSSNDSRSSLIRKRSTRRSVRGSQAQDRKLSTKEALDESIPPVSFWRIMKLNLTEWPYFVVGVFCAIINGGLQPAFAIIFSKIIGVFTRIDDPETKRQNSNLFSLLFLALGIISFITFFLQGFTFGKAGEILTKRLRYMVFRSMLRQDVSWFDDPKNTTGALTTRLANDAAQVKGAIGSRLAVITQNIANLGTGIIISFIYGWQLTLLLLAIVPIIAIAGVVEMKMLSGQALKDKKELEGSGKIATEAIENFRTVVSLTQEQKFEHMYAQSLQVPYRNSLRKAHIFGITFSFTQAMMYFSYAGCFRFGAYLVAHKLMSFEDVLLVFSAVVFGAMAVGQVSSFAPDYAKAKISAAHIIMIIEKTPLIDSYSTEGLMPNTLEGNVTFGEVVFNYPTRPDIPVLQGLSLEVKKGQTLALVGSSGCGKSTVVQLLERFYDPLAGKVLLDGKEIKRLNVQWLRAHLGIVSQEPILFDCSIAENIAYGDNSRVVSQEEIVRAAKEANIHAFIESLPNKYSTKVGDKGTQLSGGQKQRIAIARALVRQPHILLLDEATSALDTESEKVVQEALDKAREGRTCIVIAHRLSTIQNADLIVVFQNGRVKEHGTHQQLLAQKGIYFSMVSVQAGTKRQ

Regarding `CCC(=O)NC[C@@H]1CNCCO[C@H]1c1ccc(Cl)c(Cl)c1.Cl`, the IC50 – broadly, the concentration at which inhibition is half-maximal – in [1] was above 1000 nM; in [3] it was 120 nM; in series [4] it was 1.5 nM. Also, the Pe in [2] was determined as 207. For the same compound, the efflux ratio (in general, a quotient of directional permeabilities that is used to spot active efflux) at 2 h, 10 µM on MDR1 (ABCB1, P-gp) is 4.8. The inhibition – broadly, the change of the read-out against control, counted positive when it falls – at 1 h, 10 µM on CYP2D6 is 41%.

With `CC(=O)NC[C@@H]1CNCCO[C@H]1c1ccc(Cl)c(Cl)c1.Cl`, the IC50 in series [1] is above 1000 nM. Further, in series [2], the Pe stood at 146. The efflux ratio at 2 h, 10 µM on MDR1 (ABCB1, P-gp) is 5. Moreover, the inhibition at 1 h, 10 µM on CYP2D6 stood at 26%.

Regarding `Cl.O=C(NC[C@@H]1CNCCO[C@H]1c1ccc(Cl)c(F)c1)C1CCCO1` (some centres not stated), the concentration for half-maximal inhibition (IC50) in [1] is above 1000 nM; in series [3], 200 nM; in series [4], 5.3 nM. The efflux ratio at 2 h, 10 µM on MDR1 (ABCB1, P-gp) was 3.5. For the same compound, the inhibition at 1 h, 10 µM on CYP2D6 was 80%.

For the compound `COC(C)C(=O)NC[C@@H]1CNCCO[C@H]1c1ccc(Cl)c(F)c1.Cl` (some centres not stated), the values for the IC50 in series [1], in series [3] and in series [4] were above 1000 nM, 800 nM and 8.8 nM, respectively. On MDR1 (ABCB1, P-gp), the efflux ratio at 2 h, 10 µM is 1.9. Besides, the inhibition at 1 h, 10 µM on CYP2D6 is 33%.

`Cl.[2H]C([2H])([2H])OCC(=O)NC[C@@H]1CNCCO[C@H]1c1ccc(Cl)c(F)c1`: the Drug metabolism at Cytochrome P450 3A4 is on record as 0.015 %/min/pmol; at Cytochrome P450 2D6 [5], “Metabolite_Detected”; in series [6], 0.008 %/min/pmol; on Cytochrome P450 2D6 [7] it was 0.035 %/min/pmol; on Cytochrome P450 2C19, 0.012 %/min/pmol. At hERG (KCNH2), this compound gave an inhibition at 10 µM of 17%. Besides, the results for the IC50 in [1], in series [3] and in [4] were above 1000 nM, 680 nM and 3.3 nM, respectively. In addition, the bioavailability – broadly, dose-corrected exposure relative to a reference, in per cent – in series [8] worked out at 68%. For the same compound, the efflux ratio at 2 h, 10 µM at MDR1 (ABCB1, P-gp) came out at 2.1. Moreover, the Occ in series [9] was 3.8%. The inhibition at 1 h, 10 µM on CYP2D6 was 49%.

On to `COCCC(=O)NC[C@@H]1CNCCO[C@H]1c1ccc(Cl)c(F)c1.Cl`, for which the results for the IC50 in series [1], in series [3] and in series [4] were above 1000 nM, 890 nM and 3.9 nM, respectively. In [2], the Pe is given as 151. In addition, the efflux ratio at 2 h, 10 µM on MDR1 (ABCB1, P-gp) worked out at 12. Moreover, on CYP2D6, the inhibition at 1 h, 10 µM is 44%.

Regarding `CC(C)OCC(=O)NC[C@@H]1CNCCO[C@H]1c1ccc(Cl)c(F)c1.Cl`, the Drug metabolism on Cytochrome P450 3A4 is recorded as 0.064 %/min/pmol; in series [6], 0 %/min/pmol; at Cytochrome P450 2D6 [7], 0.37 %/min/pmol; on Cytochrome P450 2C19 it was 0.017 %/min/pmol. The values for the IC50 in series [1], in [3] and in [4] were above 1000 nM, 390 nM and 4.8 nM, respectively. The efflux ratio at 2 h, 10 µM at MDR1 (ABCB1, P-gp) was determined as 1.7. Moreover, the inhibition at 1 h, 10 µM on CYP2D6 came out at 66%.

On to `CCOCC(=O)NC[C@@H]1CNCCO[C@H]1c1ccc(Cl)c(F)c1.Cl`, for which the Drug metabolism is on record as 0.026 %/min/pmol at Cytochrome P450 3A4, 0 %/min/pmol in series [6], 0.365 %/min/pmol on Cytochrome P450 2D6 [7] and 0.005 %/min/pmol at Cytochrome P450 2C19. In addition, the IC50 in series [1] was above 1000 nM; in series [3], 220 nM; in series [4], 3.3 nM. For the same compound, the efflux ratio at 2 h, 10 µM at MDR1 (ABCB1, P-gp) was 1.4. At CYP2D6, the inhibition at 1 h, 10 µM was 79%.

Consider `COC(C)(C)C(=O)NC[C@@H]1CNCCO[C@H]1c1ccc(Cl)c(F)c1.Cl`, for which the IC50 in [1] was above 1000 nM; in series [3] it was 520 nM; in series [4], 21 nM. The efflux ratio at 2 h, 10 µM at MDR1 (ABCB1, P-gp) is 2.4. In addition, at CYP2D6, the inhibition at 1 h, 10 µM stood at 42%.

For `CCCC(=O)NC[C@@H]1CNCCO[C@H]1c1ccc(Cl)c(Cl)c1.Cl`, the IC50 in [1] is above 1000 nM; in [3] it was 62 nM; in [4], 2.6 nM. Also, the Pe in series [2] was 260. On MDR1 (ABCB1, P-gp), the efflux ratio at 2 h, 10 µM came to 3. Besides, the inhibition at 1 h, 10 µM on CYP2D6 worked out at 62%.

Take `COCC(=O)NC[C@@H]1CNCCO[C@H]1c1ccc(Cl)c(F)c1.Cl`: the Drug metabolism on Cytochrome P450 3A4 is listed as 0 %/min/pmol; at Cytochrome P450 2D6 [5], “Metabolite_Detected”; on Cytochrome P450 2D6 [10], “Metabolite_Detected”; in series [6], 0 %/min/pmol; on Cytochrome P450 2D6 [7], 0.081 %/min/pmol; at Cytochrome P450 2C19, 0.016 %/min/pmol. In addition, the IC50 is above 1000 nM in series [1], 440 nM in series [3] and 3.2 nM in [4]. This compound gave a Pe in series [2] of 221. Further, the Activity result with Rattus norvegicus was “Dose-dependent effect”. Moreover, the efflux ratio at 2 h, 10 µM on MDR1 (ABCB1, P-gp) was 2.1. Further, on CYP2D6, the inhibition at 1 h, 10 µM worked out at 48%.

Consider `Cl.O=C(NC[C@@H]1CNCCO[C@H]1c1ccc(Cl)c(F)c1)C1COCCO1` (some centres not stated), for which the IC50 in series [1] was above 1000 nM; in series [3] it was 540 nM; in series [4] it was 2.6 nM. In addition, the efflux ratio at 2 h, 10 µM at MDR1 (ABCB1, P-gp) was determined as 3.6. Further, the inhibition at 1 h, 10 µM at CYP2D6 is 66%.

With `COCC(=O)NC[C@@H]1CNCCO[C@H]1c1ccc(Cl)c(Cl)c1.Cl`, the IC50 stood at 1600 nM in series [1], 70 nM in [3] and 1.2 nM in series [4]. This compound also gave a Pe in [2] of 279. On MDR1 (ABCB1, P-gp), the efflux ratio at 2 h, 10 µM amounted to 2.1. Further, the inhibition at 1 h, 10 µM on CYP2D6 was 70%.
